Experimental data from PubChem BioAssay AID330 (DTP/NCI, 2004).
Several values for one entry are separate records, joined by “and”; a condition that tells them apart may be missing. Equal entries are not always repeated. Inconclusive results and toxic doses are left out. Rule for the calls: active = survival T/C of 150% or more; inactive = T/C below 125% in these data.

Test system: P388 leukemia ip, CD2F1 mice, survival T/C
Test: NCI In Vivo Anticancer Drug Screen. Data for tumor model P388 Leukemia (intraperitoneal) in CD2F1 (CDF1) mice
Settings: endpoint: median survival time, higher = longer survival
Procedure, shortened: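 Mice carrying the transplanted tumor received test compound or vehicle. Survival was recorded in each group, and the value is the treated-group measurement divided by that of the vehicle-treated control group.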

[1] = dose: 60.0 mg/kg/injection, schedule: Q01DX005 (ip), vehicle: saline with Tween-80
[2] = dose: 120.0 mg/kg/injection, schedule: Q01DX005 (ip), vehicle: saline with Tween-80
[3] = dose: 240.0 mg/kg/injection, schedule: Q01DX005 (ip), vehicle: saline with Tween-80
[4] = dose: 50.0 mg/kg/injection, schedule: Q01DX005 (ip), vehicle: Klucel (hydroxypropylcellulose) (HPC)
[5] = dose: 100.0 mg/kg/injection, schedule: Q01DX005 (ip), vehicle: Klucel (hydroxypropylcellulose) (HPC)
[6] = dose: 200.0 mg/kg/injection, schedule: Q01DX005 (ip), vehicle: Klucel (hydroxypropylcellulose) (HPC)
[7] = dose: 50.0 mg/kg/injection, schedule: Q01DX009 (ip), vehicle: saline with Tween-80
[8] = dose: 100.0 mg/kg/injection, schedule: Q01DX009 (ip), vehicle: saline with Tween-80
[9] = dose: 200.0 mg/kg/injection, schedule: Q01DX009 (ip), vehicle: saline with Tween-80

Measured: T/C

COc1ccc2c(c1O)N(C(C)=O)C1C3C(O)OCC=C4CN5CCC21C5CC43 (stereo not given)
inactive: dose: 4.5 mg/kg/injection, schedule: Q01DX009 (ip), vehicle: Klucel (hydroxypropylcellulose) (HPC) 100 % of control | dose: 5.0 mg/kg/injection, schedule: Q01DX009 (ip), vehicle: saline 116 % of control | dose: 9.0 mg/kg/injection, schedule: Q01DX009 (ip), vehicle: Klucel (hydroxypropylcellulose) (HPC) 103 % of control | dose: 10.0 mg/kg/injection, schedule: Q01DX009 (ip), vehicle: saline 111 % of control | dose: 18.0 mg/kg/injection, schedule: Q01DX009 (ip), vehicle: Klucel (hydroxypropylcellulose) (HPC) 101 % of control | dose: 20.0 mg/kg/injection, schedule: Q01DX009 (ip), vehicle: saline 118 % of control | dose: 36.0 mg/kg/injection, schedule: Q01DX009 (ip), vehicle: Klucel (hydroxypropylcellulose) (HPC) 110 % of control | dose: 72.0 mg/kg/injection, schedule: Q01DX009 (ip), vehicle: Klucel (hydroxypropylcellulose) (HPC) 104 % of control

CSc1nc(NC2OCC(O)C(O)C2O)c(Cl)c(=O)n1C (stereo not given)
inactive: [1] 103 % of control | [2] 104 % of control | [3] 100 % of control

NCC(=O)c1ccc2ccccc2c1
inactive: dose: 60.0 mg/kg/injection, schedule: Q01DX005 (ip), vehicle: Klucel (hydroxypropylcellulose) (HPC) 105 % of control | dose: 120.0 mg/kg/injection, schedule: Q01DX005 (ip), vehicle: Klucel (hydroxypropylcellulose) (HPC) 106 % of control

CC(=O)NC(C(=O)N1CCCC1)=C(C)C
inactive: dose: 100.0 mg/kg/injection, schedule: Q04DX002 (ip), vehicle: saline 100 % of control | dose: 200.0 mg/kg/injection, schedule: Q04DX002 (ip), vehicle: saline 98 % of control | dose: 400.0 mg/kg/injection, schedule: Q04DX002 (ip), vehicle: saline 107 % of control

COc1cc(C)c(O)c(C/C=C(\C)CC(=O)[C@H]2[C@]3(C)CCC[C@]3(C)[C@@]23C[C@H](O)C(C)(C)O3)c1
inactive: dose: 8.75 mg/kg/injection, schedule: Q01DX005 (ip), vehicle: saline with Tween-80 95 % of control | dose: 17.5 mg/kg/injection, schedule: Q01DX005 (ip), vehicle: saline with Tween-80 92 % of control | dose: 35.0 mg/kg/injection, schedule: Q01DX005 (ip), vehicle: saline with Tween-80 96 % of control

CCNC(=O)CCC(NS(=O)(=O)c1ccc(C)cc1)C(=O)O (stereo not given)
inactive: dose: 100.0 mg/kg/injection, schedule: Q04DX002 (ip), vehicle: Klucel (hydroxypropylcellulose) (HPC) 100 % of control | dose: 200.0 mg/kg/injection, schedule: Q04DX002 (ip), vehicle: Klucel (hydroxypropylcellulose) (HPC) 100 % of control | dose: 400.0 mg/kg/injection, schedule: Q04DX002 (ip), vehicle: Klucel (hydroxypropylcellulose) (HPC) 105 % of control

CC(C)c1ccc(C(CC(=O)C(C)(C)C)C(C(=O)O)c2ccc([N+](=O)[O-])cc2)cc1 (stereo not given)
inactive: dose: 50.0 mg/kg/injection, schedule: Q01DX009 (ip), vehicle: Klucel (hydroxypropylcellulose) (HPC) 109 % of control | dose: 100.0 mg/kg/injection, schedule: Q01DX009 (ip), vehicle: Klucel (hydroxypropylcellulose) (HPC) 108 % of control

Cn1c(=O)c2c(c3cc(O)ccc31)OC(C(C)(C)O)C2 (stereo not given)
inactive: [4] 95 % of control | [5] 96 % of control | [6] 86 % of control

O=c1ccnc(Nc2ccc[nH]c2=S)[nH]1
inactive: [4] 100 % of control | [1] 105 % of control | [5] 99 % of control | [2] 105 % of control | [6] 93 % of control | [3] 100 % of control

CN(C)CC[CH2][Sn]([CH3])([c]1ccccc1)[c]1ccccc1
inactive: dose: 6.25 mg/kg/injection, schedule: Q01DX009 (ip), vehicle: suspension in saline 88 % of control | dose: 12.5 mg/kg/injection, schedule: Q01DX009 (ip), vehicle: suspension in saline 101 % of control | dose: 25.0 mg/kg/injection, schedule: Q01DX009 (ip), vehicle: suspension in saline 103 % of control

Nc1ccc2c(n1)NCC/C2=N\Nc1ccccc1
inactive: [7] 115 % of control | [8] 96 % of control | [9] 100 % of control

CCNC1CCC(Nc2ccnc3cc(Cl)ccc23)CC1 (stereo not given)
inactive: [4] 95 % of control | [5] 87 % of control

O=C(Cn1ccc(O)cc1=O)N1CCOCC1
inactive: dose: 100.0 mg/kg/injection, schedule: Q04DX003 (ip), vehicle: water 95 % of control | dose: 200.0 mg/kg/injection, schedule: Q04DX003 (ip), vehicle: water 90 % of control | dose: 400.0 mg/kg/injection, schedule: Q04DX003 (ip), vehicle: water 100 % of control

CC(Cc1ccc(O)c(O)c1)C(C)Cc1ccc(O)c(O)c1 (stereo not given)
inactive: dose: 100.0 mg/kg/injection, schedule: Q01DX009 (ip), vehicle: saline 98 % of control and 106 % of control | dose: 200.0 mg/kg/injection, schedule: Q01DX009 (ip), vehicle: saline 101 % of control and 102 % of control | dose: 400.0 mg/kg/injection, schedule: Q01DX009 (ip), vehicle: saline 105 % of control and 94 % of control | dose: 600.0 mg/kg/injection, schedule: Q01DX009 (ip), vehicle: saline 98 % of control and 90 % of control

N#C/C(OC1OC(CO)C(O)C(O)C1O)=C(\C=C/C(=O)O)CC(=O)O (stereo not given)
inactive: dose: 50.0 mg/kg/injection, schedule: Q01DX005 (ip), vehicle: saline 105 % of control | dose: 100.0 mg/kg/injection, schedule: Q01DX005 (ip), vehicle: saline 106 % of control | dose: 200.0 mg/kg/injection, schedule: Q01DX005 (ip), vehicle: saline 105 % of control

Nc1cc(-c2ccc(Br)cc2)nn1-c1nnc(-c2ccccc2)c(-c2ccccc2)n1
inactive: dose: 50.0 mg/kg/injection, schedule: Q01DX005 (ip), vehicle: saline with Tween-80 101 % of control | dose: 100.0 mg/kg/injection, schedule: Q01DX005 (ip), vehicle: saline with Tween-80 93 % of control | dose: 200.0 mg/kg/injection, schedule: Q01DX005 (ip), vehicle: saline with Tween-80 92 % of control

O=C1C(=O)N(c2ccccc2)C(=O)N1c1ccccc1
inactive: dose: 6.25 mg/kg/injection, schedule: Q01DX009 (ip), vehicle: saline with Tween-80 96 % of control | dose: 12.5 mg/kg/injection, schedule: Q01DX009 (ip), vehicle: saline with Tween-80 105 % of control | dose: 25.0 mg/kg/injection, schedule: Q01DX009 (ip), vehicle: saline with Tween-80 104 % of control and 89 % of control | [8] 101 % of control and 86 % of control

CN1CCN(CCCN2c3ccccc3Sc3cc(N4c5ccccc5Sc5ccc(C(F)(F)F)cc54)c(C(F)(F)F)cc32)CC1
inactive: dose: 100.0 mg/kg/injection, schedule: Q04DX003 (ip), vehicle: Klucel (hydroxypropylcellulose) (HPC) 95 % of control | dose: 200.0 mg/kg/injection, schedule: Q04DX003 (ip), vehicle: Klucel (hydroxypropylcellulose) (HPC) 95 % of control | dose: 400.0 mg/kg/injection, schedule: Q04DX003 (ip), vehicle: Klucel (hydroxypropylcellulose) (HPC) 107 % of control

COc1cc(NC(C)CCCNC(C)C)c2ncccc2c1OC (stereo not given)
inactive: dose: 6.25 mg/kg/injection, schedule: Q01DX005 (ip), vehicle: saline 103 % of control | dose: 12.5 mg/kg/injection, schedule: Q01DX005 (ip), vehicle: saline 93 % of control | dose: 25.0 mg/kg/injection, schedule: Q01DX005 (ip), vehicle: saline 93 % of control

O=C(O)CNC(=O)C(F)(F)F
inactive: [7] 93 % of control | [8] 91 % of control | [9] 95 % of control

CC(C)(O)c1cc(=O)n(-c2ccccc2)[nH]1
inactive: [4] 102 % of control | [5] 101 % of control | [6] 105 % of control
